# Test results from patent US20140193370A1, “METHODS AND COMPOSITIONS FOR PROMOTING LEAN BODY MASS GROWTH” (NESTEC SA, priority 2011, published 2014).
# Tested on: adult dogs
# Assay: Chronic oral OEA in the diet of dogs fed 25% more than MER; body weight gain and body composition by DEXA
# Assay type: in vivo, dog
# Description: The physiological effects of regular oral OEA administration were investigated. OEA was provided as a supplement to dogs for […] to study the effect on body weight gain and body composition. Eighteen adult dogs participated in the study. Males with less than 17.5% body fat and females with less than 20% body fat were selected. Based on maintenance energy requirements (MER,) body weight and percentage of body fat, the dogs were randomly assigned into two groups. The control group (N=9) received a standard dry adult dog food (control diet without any OEA). The test group (N=9) received a selected dose of OEA incorporated into the standard diet. The dogs were fed 25% more than their MER for eight months. During the first four months, they received their ration in one meal per day. From month four to eight, they received their ration equally divided in two meals per day. Body weight was recorded weekly and dual X-ray absorptiometry (DEXA) scans were performed at baseline and every two months. Food intake was recorded daily. There was no difference in food consumption between groups (i.e., similar caloric intake).
compound,measurement,setting,value
"CCCCCCCC/C=C\CCCCCCCC(=O)NCCO [OEA, oleoylethanolamide]",Lean Gain (g/kg body weight gain),"chronic oral OEA in diet, dogs, eight months, control diet 139",170 g/kg body weight gain
same,Fat Gain (g/kg body weight gain),"chronic oral OEA in diet, dogs, eight months, control diet 1333",853 g/kg body weight gain
same,more lean body mass gained per kilogram of body weight gain than dogs fed the control diet,"eight month study, OEA containing diet vs control diet",22%
same,more fat gained per kilogram of body weight gain by dogs fed the control diet than by dogs fed the OEA containing diet,"eight month study, control diet vs OEA containing diet",56%
same,body fat,"end of eight month study, dogs fed 25% more than MER, OEA incorporated into standard diet, control diet 16.0%",14.8%
same,gain in lean body mass,"end of eight month study, dogs fed 25% more than MER, OEA incorporated into standard diet, control diet 236.9 g",446.7 g
same,food consumption (caloric intake) vs control group,"food intake recorded daily, OEA diet group vs control diet group",no difference
